Test results taken from article PMC8312882, “STING Ligand-Mediated Priming of Functional CD8^+ T Cells Specific for HIV-1-Protective Epitopes from Naive T Cells” (Journal of Virology, 2021).

Test system: naive T cells in PBMCs of HIV-1-seronegative individuals
Experiment: In vitro priming of epitope-specific CD8+ T cells from naive T cells (accelerated dendritic cell coculture, tetramer staining)
Format: cell-based, human
Method: Naive CD8^+ T-cell precursors specific for HLA-B*52:01-restricted, HLA-A*24:02-restricted, or HLA-C*12:02-restricted ones were primed in vitro by using the accelerated dendritic cell coculture protocol ([23], [24], [56], [57]). On day 0, frozen-thawed PBMCs of HIV-1-seronegative individuals having the HLA-B*52:01-C*12:02 haplotype or HLA-A*24:02 were suspended at 5 × 10^6 cells/well in 24-well tissue culture plates containing AIM-V medium (Invitrogen) supplemented with Flt3L (50 ng/ml; R&D Systems). AIM-V medium supplemented with a 10 μM concentration of each peptide and STING ligand 3′3′-cGAMP (10 μg/ml; InvivoGen) was added on day 1, and then FCS was further added to 10% by volume per well on day 2. On day 10, the cells were collected and then stained with epitope-specific tetramers.
HLA-B*52:01-RI8, -MI8, -SI8, or -WV8 peptide tetrameric complexes (tetramers) and HLA-A*24:02-RF10, HLA-C*12:02-IY11, -MY9, or -RL9 complexes were generated as previously described ([58]). CD8^+ T cells specific for a given epitope were stained with phycoerythrin (PE)-conjugated epitope-specific tetramers at 37°C for 30 min. The cells were then washed twice with RPMI 1640 medium containing 5% FCS (R5), followed by staining with allophycocyanin (APC)-conjugated anti-CD8 MAb (Dako, Denmark) and 7-aminoactinomycin D (7-AAD; BD Pharmingen) at 4°C for 30 min. Finally, the cells were washed twice with R5 and then analyzed by using a FACS Canto II. Primed T cells unstained with tetramer were used as a negative control to determine gating of the tetramer^+ population. The tetramer^+ population was determined based on the gating of the negative control ([…] of tetramer^+ cells).

[1] = HIV-1-uninfected individuals having HLA-B*52:01-C*12:02 haplotype

In the case of `Nc1nc2c(ncn2[C@@H]2O[C@@H]3COP(=O)(O)O[C@H]4[C@@H](O)[C@H](n5cnc6c(N)ncnc65)O[C@@H]4COP(=O)(O)O[C@H]3[C@H]2O)c(=O)[nH]1` [3′3′-cGAMP], the “priming of CD8+ T cells specific for HLA-B*52:01-restricted epitopes from naive T cells” value [1] is reported as “effectively primed CD8^+ T cells specific for 3 of 4 HLA-B*52:01-restricted epitopes”, the “priming of CD8+ T cells specific for HLA-C*12:02-restricted epitopes from naive T cells” value [1] is reported as “failed to prime those specific for all 3 HLA-C*12:02-restricted epitopes” and the “mean frequency of NefRF10-specific T cells ± 2 SD” value (stimulated with 3′3′-cGAMP (10 μg/ml) and NefRF10 peptide (10 μM) after Flt3 ligand 24 h, PBMCs from 7 HIV-1-seronegative HLA-A*24:02+ individuals, HLA-A*24:02-NefRF10 tetramer, 10-day culture, SD) is reported as 0.206% ± 0.186%.
